Data taken from US11339130B1 (Blade Therapeutics, Inc., priority 2016, dated 2022).
Read-outs that look alike come from different tables or passages of the source.

Tests used:
Human Calpain 9/NS1 = molecular target: T1, Human Calpain 9/NS1 (Homo sapiens, UniProt O14815); assay: Calpain inhibition continuous fluorescence (FRET) assay, Human Calpain 9/NS1; format: biochemical; conditions: read-out: Human Calpain 9/NS1 IC50
T1 sequence (O14815 1-690): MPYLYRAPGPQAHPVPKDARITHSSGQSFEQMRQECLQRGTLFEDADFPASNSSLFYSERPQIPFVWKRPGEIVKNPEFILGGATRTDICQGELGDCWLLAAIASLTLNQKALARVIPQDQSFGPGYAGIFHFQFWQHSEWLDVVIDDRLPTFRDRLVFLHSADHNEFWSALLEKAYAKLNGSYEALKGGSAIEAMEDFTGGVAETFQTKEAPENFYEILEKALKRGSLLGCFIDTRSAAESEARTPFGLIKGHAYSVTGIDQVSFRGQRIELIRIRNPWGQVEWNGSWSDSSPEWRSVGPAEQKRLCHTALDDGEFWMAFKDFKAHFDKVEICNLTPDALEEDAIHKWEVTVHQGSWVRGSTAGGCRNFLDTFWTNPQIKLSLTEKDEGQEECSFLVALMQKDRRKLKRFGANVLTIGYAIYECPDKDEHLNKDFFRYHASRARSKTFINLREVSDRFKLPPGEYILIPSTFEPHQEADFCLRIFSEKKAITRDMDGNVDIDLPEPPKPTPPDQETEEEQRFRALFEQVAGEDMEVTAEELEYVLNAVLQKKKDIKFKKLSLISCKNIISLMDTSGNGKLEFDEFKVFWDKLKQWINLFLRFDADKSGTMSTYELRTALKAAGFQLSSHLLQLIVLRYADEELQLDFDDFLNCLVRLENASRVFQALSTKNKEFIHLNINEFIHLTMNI
T1 sequence (P04632 1-268 partner): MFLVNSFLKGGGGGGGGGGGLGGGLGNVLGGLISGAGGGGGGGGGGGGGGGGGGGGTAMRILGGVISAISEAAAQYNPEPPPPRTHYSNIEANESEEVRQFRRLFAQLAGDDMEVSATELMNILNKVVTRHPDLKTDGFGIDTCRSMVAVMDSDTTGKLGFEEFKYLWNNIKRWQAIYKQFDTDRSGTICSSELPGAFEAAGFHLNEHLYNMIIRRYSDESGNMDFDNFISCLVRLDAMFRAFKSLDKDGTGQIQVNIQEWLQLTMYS
Summary of the method: (§1)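 Fluorescence increase from the cleaved 5-FAM/QXL 520 substrate, read at 490/520 nm, gave activity. Calcium was supplied with the substrate to activate the enzyme in situ after a 25C enzyme-inhibitor preincubation, and IC50s were fit from initial slopes.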

Human Calpain 1/NS1 = molecular target: T2, Human Calpain 1/NS1 (Homo sapiens, UniProt P07384); assay: Calpain inhibition continuous fluorescence (FRET) assay, Human Calpain 1/NS1; format: biochemical; conditions: read-out: Human Calpain 1/NS1 IC50
T2 sequence (P07384 1-714): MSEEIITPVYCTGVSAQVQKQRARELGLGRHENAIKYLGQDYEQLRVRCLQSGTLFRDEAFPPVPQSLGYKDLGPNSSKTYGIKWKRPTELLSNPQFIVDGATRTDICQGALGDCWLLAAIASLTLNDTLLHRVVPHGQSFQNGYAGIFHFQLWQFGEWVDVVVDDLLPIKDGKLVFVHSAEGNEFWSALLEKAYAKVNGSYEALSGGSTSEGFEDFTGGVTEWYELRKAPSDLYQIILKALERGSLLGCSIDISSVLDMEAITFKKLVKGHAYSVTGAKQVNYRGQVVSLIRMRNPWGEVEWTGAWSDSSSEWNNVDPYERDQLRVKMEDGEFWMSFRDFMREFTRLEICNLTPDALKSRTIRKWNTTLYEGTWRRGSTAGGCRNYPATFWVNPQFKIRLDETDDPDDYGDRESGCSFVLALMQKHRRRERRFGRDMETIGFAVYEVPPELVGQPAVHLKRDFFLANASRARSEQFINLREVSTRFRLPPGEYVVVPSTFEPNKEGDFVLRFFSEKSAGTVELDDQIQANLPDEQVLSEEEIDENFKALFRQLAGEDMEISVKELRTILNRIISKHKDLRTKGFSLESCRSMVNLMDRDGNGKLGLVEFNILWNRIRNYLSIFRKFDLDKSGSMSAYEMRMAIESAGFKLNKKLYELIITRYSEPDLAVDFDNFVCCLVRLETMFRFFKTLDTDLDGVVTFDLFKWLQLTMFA
T2 sequence (P04632 1-268 partner): T1 sequence (P04632 1-268 partner)
Summary of the method: as §1

[1] = test system: Calpain activity in SH-SY5Y cells; assay: SH-SY5Y + AMC fluorescence assay (Suc-LLVY-AMC substrate); format: cell-based; conditions: read-out: SH-SY5Y + AMC IC50
Human Calpain 2/NS1 = molecular target: T3, Human Calpain 2/NS1 (Homo sapiens, UniProt P17655); assay: Calpain inhibition continuous fluorescence (FRET) assay, Human Calpain 2/NS1; format: biochemical; conditions: read-out: Human Calpain 2/NS1 IC50
T3 sequence (P17655 1-700): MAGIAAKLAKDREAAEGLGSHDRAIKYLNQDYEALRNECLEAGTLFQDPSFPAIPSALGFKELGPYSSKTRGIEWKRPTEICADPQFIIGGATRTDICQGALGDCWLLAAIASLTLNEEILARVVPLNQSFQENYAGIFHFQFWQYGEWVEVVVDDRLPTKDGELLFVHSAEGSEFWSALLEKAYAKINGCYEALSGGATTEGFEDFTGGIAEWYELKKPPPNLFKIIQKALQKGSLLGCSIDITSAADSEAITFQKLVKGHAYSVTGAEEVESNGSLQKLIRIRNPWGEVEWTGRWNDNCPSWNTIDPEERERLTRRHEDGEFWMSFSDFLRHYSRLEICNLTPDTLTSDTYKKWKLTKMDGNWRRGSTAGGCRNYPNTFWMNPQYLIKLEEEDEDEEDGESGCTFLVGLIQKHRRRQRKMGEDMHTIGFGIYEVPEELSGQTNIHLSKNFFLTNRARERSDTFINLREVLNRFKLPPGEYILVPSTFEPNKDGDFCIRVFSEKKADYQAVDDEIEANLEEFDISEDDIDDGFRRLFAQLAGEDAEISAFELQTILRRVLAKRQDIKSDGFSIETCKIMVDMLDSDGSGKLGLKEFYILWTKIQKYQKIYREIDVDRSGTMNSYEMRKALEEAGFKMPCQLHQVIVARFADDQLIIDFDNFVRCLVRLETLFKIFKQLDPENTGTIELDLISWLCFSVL
T3 sequence (P04632 1-268 partner): T1 sequence (P04632 1-268 partner)
Summary of the method: as §1

[2] = test system: Calpain activity in SH-SY5Y cells (SBDP-150); assay: SH-SY5Y Spectrin western blot assay (SBDP-150 breakdown product, A23187-induced); format: cell-based; conditions: Homo sapiens, SH-SY5Y cells, read-out: SH-SY5Y Spectrin IC50
[3] = A23187-induced SBDP-150, western blot
[4] = Column D, A23187-induced SBDP-150

Compound | IC50 (Human Calpain 9/NS1) | IC50 (Human Calpain 1/NS1) | IC50 [1] | IC50 (Human Calpain 2/NS1) | IC50 [2, 3] | IC50 (Human Calpain 9/NS1; Column C) | IC50 (Human Calpain 1/NS1; Column A) | IC50 ([1]; Column E) | IC50 (Human Calpain 2/NS1; Column B) | IC50 [2, 4]
Cc1cc(C(=O)NC(Cc2ccccc2)C(=O)C(N)=O)n(-c2ccc(CN3CCOCC3)cc2)n1 (stereo not drawn) [Compound 442, N-(4-amino-3,4-dioxo-1-phenylbutan-2-yl)-3-methyl-1-(4-(morpholinomethyl)phenyl)-1H-pyrazole-5-carboxamide] | < 3 µM | < 3 µM | > 25 µM | < 3 µM | 10 to 25 µM |  |  |  |  | 
Cc1nc(-c2cccc(F)c2)c(C(=O)N[C@H](C=O)Cc2ccccc2)o1 [Compound 353, (S)-4-(3-fluorophenyl)-2-methyl-N-(1-oxo-3-phenylpropan-2-yl)oxazole-5-carboxamide] | < 3 µM | < 3 µM | > 25 µM | < 3 µM | 10 to 25 µM |  |  |  |  | 
Cn1cc(C(=O)NC(Cc2ccccc2)C(=O)C(N)=O)c(-c2ccc3c(c2)OCO3)n1 (stereo not drawn) [Compound 567, N-(4-amino-3,4-dioxo-1-phenylbutan-2-yl)-3-(benzo[d][1,3]dioxol-5-yl)-1-methyl-1H-pyrazole-4-carboxamide] | < 3 µM | < 3 µM | < 10 µM | < 3 µM | < 10 µM |  |  |  |  | 
NC(=O)C(=O)[C@H](Cc1ccccc1)NC(=O)c1cncn1-c1ccc(-c2ncco2)cn1 [Compound 112, (S)—N-(4-amino-3,4-dioxo-1-phenylbutan-2-yl)-1-(5-(oxazol-2-yl)pyridin-2-yl)-1H-imidazole-5-carboxamide] |  |  |  |  |  | < 3 µM | < 3 µM | > 25 µM | < 3 µM | < 10 µM
Cc1cc(C(=O)NC(Cc2ccccc2)C(=O)C(N)=O)n(-c2cccc(COCc3ccccc3)c2)n1 (stereo not drawn) [Compound 438, N-(4-amino-3,4-dioxo-1-phenylbutan-2-yl)-1-(3-((benzyloxy)methyl)phenyl)-3-methyl-1H-pyrazole-5-carboxamide] | < 3 µM | < 3 µM | 10 to 25 µM | < 3 µM | 10 to 25 µM |  |  |  |  | 
COCCOCCOc1ccc(-n2nc(C)cc2C(=O)NC(Cc2ccccc2)C(=O)C(N)=O)cc1 (stereo not drawn) [Compound 443, N-(4-amino-3,4-dioxo-1-phenylbutan-2-yl)-1-(4-(2-(2-methoxyethoxy)ethoxy)phenyl)-3-methyl-1H-pyrazole-5-carboxamide] | < 3 µM | < 3 µM | 10 to 25 µM | < 3 µM | < 10 µM |  |  |  |  | 
CC(C)n1cc(C(=O)N[C@@H](Cc2ccccc2)C(=O)C(N)=O)c(-c2ccccc2)n1 [Compound 242, (S)—N-(4-amino-3,4-dioxo-1-phenylbutan-2-yl)-1-isopropyl-3-phenyl-1H-pyrazole-4-carboxamide] |  |  |  |  |  | < 3 µM | < 3 µM | < 10 µM | < 3 µM | > 25 µM
Cc1ccncc1-c1nn(C(F)F)cc1C(=O)NC(Cc1ccccc1)C(=O)C(N)=O (stereo not drawn) [Compound 522, N-(4-amino-3,4-dioxo-1-phenylbutan-2-yl)-1-(difluoromethyl)-3-(4-methylpyridin-3-yl)-1H-pyrazole-4-carboxamide] | < 3 µM | < 3 µM | < 10 µM | < 3 µM | > 25 µM |  |  |  |  | 
NC(=O)C(=O)C(Cc1ccccc1)NC(=O)c1cn(C(F)F)nc1-c1cccc2c1OCCO2 (stereo not drawn) [Compound 555] | < 3 µM | < 3 µM | < 10 µM | < 3 µM | > 25 µM |  |  |  |  | 
Cn1cc(C(=O)NC(Cc2ccccc2)C(=O)C(N)=O)c(-c2ccco2)n1 (stereo not drawn) [Compound 500, N-(4-amino-3,4-dioxo-1-phenylbutan-2-yl)-3-(furan-2-yl)-1-methyl-1H-pyrazole-4-carboxamide] | < 3 µM | < 3 µM | < 10 µM | < 3 µM | 10 to 25 µM |  |  |  |  | 
NC(=O)C(=O)C(Cc1ccccc1)NC(=O)c1cn(C(F)F)nc1-c1cncc(F)c1 (stereo not drawn) [Compound 586, N-(4-amino-3,4-dioxo-1-phenylbutan-2-yl)-1-(difluoromethyl)-3-(5-fluoropyridin-3-yl)-1H-pyrazole-4-carboxamide] | < 3 µM | < 3 µM | 10 to 25 µM | < 3 µM | 10 to 25 µM |  |  |  |  | 
COc1cccc(-c2nn(C(F)F)cc2C(=O)NC(Cc2ccccc2)C(=O)C(N)=O)c1 (stereo not drawn) [Compound 384, N-(4-amino-3,4-dioxo-1-phenylbutan-2-yl)-1-(difluoromethyl)-3-(3-methoxyphenyl)-1H-pyrazole-4-carboxamide] | < 3 µM | < 3 µM | < 10 µM | < 3 µM | < 10 µM |  |  |  |  | 
Cn1cc(C(=O)NC(Cc2ccccc2)C(=O)C(N)=O)c(-c2ccccc2C(F)F)n1 (stereo not drawn) [Compound 572, N-(4-amino-3,4-dioxo-1-phenylbutan-2-yl)-3-(2-(difluoromethyl)phenyl)-1-methyl-1H-pyrazole-4-carboxamide] | < 3 µM | < 3 µM | < 10 µM | < 3 µM | > 25 µM |  |  |  |  | 
Cn1cc(C(=O)NC(Cc2ccccc2)C(=O)C(N)=O)c(N2CCN(C(=O)OCc3ccccc3)CC2)n1 (stereo not drawn) [Compound 601, Benzyl 4-(4-((4-amino-3,4-dioxo-1-phenylbutan-2-yl)carbamoyl)-1-methyl-1H-pyrazol-3-yl)piperazine-1-carboxylate] | 3 to 10 µM | 3 to 10 µM | > 25 µM | < 3 µM | > 25 µM |  |  |  |  | 
O=CC(Cc1ccccc1)NC(=O)c1cnoc1-c1ccccc1 (stereo not drawn) [Compound 397, N-(1-oxo-3-phenylpropan-2-yl)-5-phenylisoxazole-4-carboxamide] | < 3 µM | < 3 µM | > 25 µM | < 3 µM | < 10 µM |  |  |  |  | 
